Laboratory results from patent publication EP2951180B1, “2,6,7,8 SUBSTITUTED PURINES AS HDM2 INHIBITORS” (Merck Sharp & Dohme Corp., priority 2013, dated 2014).
pIC50: −log10 of the molar value.

What follows are molecules tested against T1, HDM2 (Homo sapiens, UniProt Q00987) (assay: HDM2 FRET assay (inhibition of binding of FITC labeled p53-pocket peptide to HDM2)). Conditions: 0.5 nM HDM2 (residues 17 to 125), 3nM peptide, two hour incubation at room temperature; read-out: FRET IC50.
T1 construct: Thioredoxin (N); made in house; host or cells: E. coli strain BL21(DE3)Rosetta
T1 sequence (Q00987 17-125): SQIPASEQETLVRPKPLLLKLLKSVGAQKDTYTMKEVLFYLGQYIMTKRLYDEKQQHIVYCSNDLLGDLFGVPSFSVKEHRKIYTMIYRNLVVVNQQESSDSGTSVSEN
Summary of the method: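 Final: 0.5 nM His-HDM2, 3 nM FITC peptide, 0.25 nM Tb anti-His Ab; PBS, 0.01% BSA, 0.01% Tween-20; 0.1% DMSO.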
With C[C@@H](Nc1nc(N2CCC[C@@H]2C(=O)O)nc2nc(N3CCOC[C@H]3c3ccccc3)n(C[C@H]3CC[C@H](C)CC3)c12)C1CCC1 [Example 13.4, 1-(6-{[(1R)-1-cyclobutylethyl]amino}-7-[(trans-4-methylcyclohexyl)methyl]-8-[(3R)-3-phenylmorpholin-4-yl]-7H-purin-2-yl)-D-proline] the pIC50 was 7.02.
C[C@@H](Nc1nc(NC(C)(C)C(=O)O)nc2nc(N3CCOC[C@H]3c3ccccc3)n(C[C@H]3CC[C@H](C)CC3)c12)C1CCC1 [Example 13.5, N-(6-{[(1R)-1-cyclobutylethyl]amino}-7-[(trans-4-methylcyclohexyl)methyl]-8-[(3R)-3-phenylmorpholin-4-yl]-7H-purin-2-yl)-2-methylalanine] gave a pIC50 of 6.59.
C[C@@H](Nc1nc(NCC(=O)O)nc2nc(N3CCOC[C@H]3c3ccccc3)n(C[C@H]3CC[C@H](C)CC3)c12)C1CCC1 [Example 13.6, N-(6-{[(1R)-1-cyclobutylethyl]amino}-7-[(trans-4-methylcyclohexyl)methyl]-8-[(3R)-3-phenylmorpholin-4-yl]-7H-purin-2-yl)glycine] was tested, and the pIC50 was 6.83.
C[C@@H](Nc1nc(N2CCC[C@]2(C)C(=O)O)nc2nc(N3CCOC[C@H]3c3ccccc3)n(C[C@H]3CC[C@H](C)CC3)c12)C1CCC1 [Example 13.7, 1-(6-{[(1R)-1-cyclobutylethyl]amino}-7-[(trans-4-methylcyclohexyl)methyl]-8-[(3R)-3-phenylmorpholin-4-yl]-7H-purin-2-yl)-2-methyl-D-proline] gave a pIC50 of 6.65.
C[C@@H](Nc1nc(N(C)CC(=O)O)nc2nc(N3CCOC[C@H]3c3ccccc3)n(C[C@H]3CC[C@H](C)CC3)c12)C1CCC1 [Example 13.8, N-(6-{[(1R)-1-cyclobutylethyl]amino}-7-[(trans-4-methylcyclohexyl)methyl]-8-[(3R)-3-phenylmorpholin-4-yl]-7H-purin-2-yl)-N-methylglycine] showed a pIC50 of 6.92.
In the case of C[C@@H](Nc1nc(N2CCC(C(=O)O)C2)nc2nc(N3CCOC[C@H]3c3ccccc3)n(C[C@H]3CC[C@H](C)CC3)c12)C1CCC1 (stereo partly drawn) [Example 13.9, 1-(6-{[(1R)-1-cyclobutylethyl]amino}-7-[(trans-4-methylcyclohexyl)methyl]-8-[(3R)-3-phenylmorpholin-4-yl]-7H-purin-2-yl)pyrrolidine-3-carboxylic acid], the pIC50 was 6.70.
For CSC1(C(=O)O)CCN(c2nc(N[C@H](C)C3CCC3)c3c(n2)nc(N2CCOC[C@H]2c2ccccc2)n3C[C@H]2CC[C@H](C)CC2)C1 (stereo partly drawn) [Example 13.10, 1-(6-{[(1R)-1-cyclobutylethyl]amino}-7-[(trans-4-methylcyclohexyl)methyl]-8-[(3R)-3-phenylmorpholin-4-yl]-7H-purin-2-yl)-3-(methylsulfanyl)pyrrol idine-3-carboxylic acid], the pIC50 was 6.60.
In the case of C[C@@H](Nc1nc(N2CC(C(=O)O)C(C)(C)C2)nc2nc(N3CCOC[C@H]3c3ccccc3)n(C[C@H]3CC[C@H](C)CC3)c12)C1CCC1 (stereo partly drawn) [Example 13.11, 1-(6-{[(1R)-1-cyclobutylethyl]amino}-7-[(trans-4-methylcyclohexyl)methyl]-8-[(3R)-3-phenylmorpholin-4-yl]-7H-purin-2-yl)-4,4-dimethylpyrrolidine-3 - carboxylic acid], the pIC50 was 7.02.
Work on C[C@@H](Nc1nc(S(C)(=O)=O)nc2nc(N3CCOC[C@H]3c3ccccc3)n(C[C@H]3CC[C@H](C)CC3)c12)C1CCC1 [Example 14.1, N-((R)-1-cyclobutylethyl)-7-((trans-4-methylcyclohexyl)methyl)-2-(methylsulfonyl)-8-((R)-3-phenylmorpholino)-7H-purin-6-amine] yielded a pIC50 of 7.63.
In the case of CC(C)c1ccnc(-c2nc3nc(S(C)(=O)=O)nc(N[C@H](C)C4CCC4)c3n2C[C@H]2CC[C@H](C)CC2)c1 [Example 14.4, N-[(1R)-1-cyclobutylethyl]-7-[(trans-4-methylcyclohexyl)methyl]-8-[4-(1-methylethyl)pyridin-2-yl]-2-(methylsulfonyl)-7H-purin-6-amine], the pIC50 was 7.14.
Work on CCS(=O)(=O)c1nc(N[C@H](C)C2CCC2)c2c(n1)nc(N1CCOC[C@H]1c1ccccc1)n2C[C@H]1CC[C@H](C)CC1 [Example 14.5, N-[(1R)-1-cyclobutylethyl]-2-(ethylsulfonyl)-7-[(trans-4-methylcyclohexyl)methyl]-8-[(3R)-3-phenylmorpholin-4-yl]-7H-purin-6-amine] yielded a pIC50 of 7.70.
CC(C)S(=O)(=O)c1nc(N[C@H](C)C2CCC2)c2c(n1)nc(N1CCOC[C@H]1c1ccccc1)n2C[C@H]1CC[C@H](C)CC1 [Example 14.6, N-[(1R)-1-cyclobutylethyl]-7-[(trans-4-methylcyclohexyl)methyl]-2-[(1-methylethyl)sulfonyl]-8-[(3R)-3-phenylmorpholin-4-yl]-7H-purin-6-amine] showed a pIC50 of 7.68.
With CC[S+]([O-])c1nc(N[C@H](C)C2CCC2)c2c(n1)nc(N1CCOC[C@H]1c1ccccc1)n2C[C@H]1CC[C@H](C)CC1 (stereo partly drawn) [Example 14.7, N-[(1R)-1-cyclobutylethyl]-2-(ethylsulfinyl)-7-[(trans-4-methylcyclohexyl)methyl]-8-[(3R)-3-phenylmorpholin-4-yl]-7H-purin-6-amine] the pIC50 was 7.91.
Work on CC(C)[S+]([O-])c1nc(N[C@H](C)C2CCC2)c2c(n1)nc(N1CCOC[C@H]1c1ccccc1)n2C[C@H]1CC[C@H](C)CC1 (stereo partly drawn) [Example 14.8, N-[(1R)-1-cyclobutylethyl]-7-[(trans-4-methylcyclohexyl)methyl]-2-[(1-methylethyl)sulfinyl]-8-[(3R)-3-phenylmorpholin-4-yl]-7H-purin-6-amine] yielded a pIC50 of 7.81.
With C[C@@H](Nc1nc(S(=O)(=O)CC(F)(F)F)nc2nc(N3CCOC[C@H]3c3ccccc3)n(C[C@H]3CC[C@H](C)CC3)c12)C1CCC1 [Example 14.15, N-[(1R)-1-cyclobutylethyl]-7-[(trans-4-methylcyclohexyl)methyl]-8-[(3R)-3-phenylmorpholin-4-yl]-2-[(2,2,2-trifluoroethyl)sulfonyl]-7H-purin-6-amine] the pIC50 was 6.66.
Molecule C[C@@H](Nc1nc(S(=O)(=O)CCO)nc2nc(N3CCOC[C@H]3c3ccccc3)n(C[C@H]3CC[C@H](C)CC3)c12)C1CCC1 [Example 14.18, 2-[(6-{[(1R)-1-cyclobutylethyl]amino} -7-[(trans-4-methylcyclohexyl)methyl]-8-[(3R)-3-phenylmorpholin-4-yl]-7H-purin-2-yl)sulfonyl]ethanol] has a pIC50 of 8.16.
CC(C)c1ccnc(-c2nc3nc(C(=O)O)nc(N[C@H](C)C4CCC4)c3n2C[C@H]2CC[C@H](C)CC2)c1 [Example 15.1, 6-(((R)-1-cyclobutylethyl)amino)-8-(4-isopropylpyridin-2-yl)-7-((trans-4-methylcyclohexyl)methyl)-7H-purine-2-carboxylic acid] showed a pIC50 of 8.89.
Work on CC(C)c1ccnc(-c2nc3nc(C(=O)O)nc(N(C)[C@H](C)C4CCC4)c3n2C[C@H]2CC[C@H](C)CC2)c1 [Example 15.2, 6-(((R)-1-cyclobutylethyl)(methyl)amino)-8-(4-isopropylpyridin-2-yl)-7-((trans-4-methylcyclohexyl)methyl)-7H-purine-2-carboxylic acid] yielded a pIC50 of 7.98.
With CC(C)c1cc(-c2nc3nc(C(=O)O)nc(N[C@H](C)C4CCC4)c3n2C[C@H]2CC[C@H](C)CC2)[nH]c(=O)c1 [Example 15.3, 6-(((R)-1-cyclobutylethyl)amino)-8-(4-isopropyl-6-oxo-1,6-dihydropyridin-2-yl)-7-((trans-4-methylcyclohexyl)methyl)-7H-purine-2-carboxylic acid] the pIC50 was 7.81.
Work on CCOc1cc(C(C)C)cc(-c2nc3nc(C(=O)O)nc(N[C@H](C)C4CCC4)c3n2C[C@H]2CC[C@H](C)CC2)n1 [Example 15.4, 6-(((R)-1-cyclobutylethyl)amino)-8-(6-ethoxy-4-isopropylpyridin-2-yl)-7-((trans-4-methylcyclohexyl)methyl)-7H-purine-2-carboxylic acid] yielded a pIC50 of 8.35.
Work on CC(C)c1cc(F)nc(-c2nc3nc(-c4noc(=O)[nH]4)nc(N[C@H](C)C4CCC4)c3n2C[C@H]2CC[C@H](C)CC2)c1 [Example 15.5, 3-(6-(((R)-1-cyclobutylethyl)amino)-8-(6-fluoro-4-isopropylpyridin-2-yl)-7-((trans-4-methylcyclohexyl)methyl)-7H-purin-2-yl)-1,2,4-oxadiazol-5(2H)-one] yielded a pIC50 of 7.48.
CC(C)c1ccnc(-c2nc3nc(C(=O)O)nc(N[C@H](C)C4CCC4)c3n2C[C@H]2CC[C@H](C)CC2)c1F [Example 15.6, 6-(((R)-1-Cyclobutylethyl)amino)-8-(3-fluoro-4-isopropylpyridin-2-yl)-7-((trans-4-methylcyclohexyl)methyl)-7H-purine-2-carboxylic acid] gave a pIC50 of 8.22.
With CC(C)c1ccnc(-c2nc3nc(-c4noc(=O)[nH]4)nc(N[C@H](C)C4CCC4)c3n2C[C@H]2CC[C@H](C)CC2)c1F [Example 15.7, 3-(6-((R)-1-cyclobutylethylamino)-8-(3-fluoro-4-isopropylpyridin-2-yl)-7-((trans-4-methylcyclohexyl)methyl)-7H-purin-2-yl)-1,2,4-oxadiazol-5(4H)-one] the pIC50 was 8.29.
CC(C)c1cc(-c2nc3nc(C(=O)O)nc(N[C@H](C)C4CCC4)c3n2C[C@H]2CC[C@H](C)CC2)ncc1F [Example 15.8, 6-(((R)-1-cyclobutylethyl)amino)-8-(5-fluoro-4-isopropylpyridin-2-yl)-7-((trans-4-methylcyclohexyl)methyl)-7H-purine-2-carboxylic acid] was tested, and the pIC50 was 8.94.

Same assay, conditions: read-out: % inh. at 1000 nM; at 1000 nM compound
In the case of CNc1nc(N[C@H](C)C2CCC2)c2c(n1)nc(N1CCOC[C@H]1c1ccccc1)n2C[C@H]1CC[C@H](C)CC1 [Example 13.3, N^6-[(1R)-1-cyclobutylethyl]-N^2-methyl-7-[(trans-4-methylcyclohexyl)methyl]-8-[(3R)-3-phenylmorpholin-4-yl]-7H-purine-2,6-diamine], the inhibition at 1 µM was 46%.
